Source: patent publication US20200009088A1, “COMPOSITIONS AND METHODS FOR TREATING ANDROGEN-INDEPENDENT CANCER” (The Regents of the University of California, priority 2017, published 2020)

Tests used:
Assay type in all cases: cell-based
AR variants [1] = experiment: AR variant protein degradation (cycloheximide, MG132, ubiquitin IP) in CWR22Rv1 cells; conditions: FIG. 15
Description: (§1) “AR-Variants” represents a combination of all forms of AR.
(§2) To determine if the small molecule modulators affect AR-V7 protein expression via protein degradation, CWR22Rv1 and C4-2B MDVR cells were treated with cycloheximide (CHX) and the half-life of AR-V7 protein was measured.
After 0, 2, 4, and 8 hours, whole cell lysate was collected and subjected to Western blot. The half-life of AR-V7 was then calculated.
Subsequently, the whole cell lysate was collected and subjected to Western blot.
For the data shown in FIG. 15C, CWR22Rv1 cells were treated with Nic, Compound 7, or Compound 31. Subsequently, whole cell lysate was immunoprecipitated with an AR antibody and blotted with ubiquitin and AR antibodies.

AR-FL = biological target: T1, AR-FL (Homo sapiens, UniProt P10275, T878A); experiment: PSA-luc assay in C4-2B cells (pcDNA), AR-FL; conditions: FBS, 1 μM overnight, FIG. 14A
T1 construct: endogenous in cells; host or cells: C4-2B cells transfected with pcDNA and the PSA-E/P-luciferase reporter
Description: (§3) C4-2B cells were cotransfected with pcDNA, with or without AR-V1, AR-V3, AR-V7, AR-V9 or AR-V12, and with PSA-E/P-luciferase plasmids in FBS condition.

C4-2B MDVR cells = experiment: Cell growth assay (cell numbers), C4-2B MDVR; conditions: for cell proliferation, combination with enzalutamide (MDV) / cell growth: C4-2B MDVR, 48 hours; for cell proliferation, combination with enzalutamide (MDV): 0.5 μM + enzalutamide, FIG. 7B; for cell growth: increasing doses of niclosamide/analogs, FIG. 6
AR-V7 [2] = biological target: T2, AR-V7 (Homo sapiens, UniProt P10275); experiment: Western blot of AR-V7 expression in CWR22Rv1 cell lysates; parameters: endogenous in cells; host or cells: CWR22Rv1 prostate cancer cells (also grown as xenograft tumours); conditions: CWR22Rv1 cells, FIG. 2A
T2 sequence (P10275 1-644 isoform P10275-3): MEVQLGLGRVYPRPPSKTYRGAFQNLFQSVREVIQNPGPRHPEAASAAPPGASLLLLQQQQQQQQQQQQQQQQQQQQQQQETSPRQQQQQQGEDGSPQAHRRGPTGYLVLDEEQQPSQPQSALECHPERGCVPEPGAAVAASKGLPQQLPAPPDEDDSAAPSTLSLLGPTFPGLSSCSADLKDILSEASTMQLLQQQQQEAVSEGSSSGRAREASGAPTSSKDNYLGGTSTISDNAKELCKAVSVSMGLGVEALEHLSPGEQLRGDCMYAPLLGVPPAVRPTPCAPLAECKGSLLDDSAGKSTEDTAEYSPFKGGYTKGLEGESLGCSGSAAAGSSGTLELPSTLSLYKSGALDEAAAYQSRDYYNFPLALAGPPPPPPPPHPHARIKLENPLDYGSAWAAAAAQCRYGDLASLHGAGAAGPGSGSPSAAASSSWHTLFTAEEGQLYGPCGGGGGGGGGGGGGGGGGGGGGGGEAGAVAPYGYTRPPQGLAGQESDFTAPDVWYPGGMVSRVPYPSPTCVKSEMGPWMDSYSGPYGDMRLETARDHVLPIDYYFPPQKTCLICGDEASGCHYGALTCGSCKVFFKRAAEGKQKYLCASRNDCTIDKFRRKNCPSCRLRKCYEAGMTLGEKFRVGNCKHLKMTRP
Description: as §1
The effects of the synthetic small molecule modulators on AR and AR variant expression were determined. CWR22Ry1 prostate cancer cells were treated with different compounds. Protein lysates were analyzed for AR and AR variant expression.

L702H AR mutant = biological target: T3, L702H AR mutant (Homo sapiens, UniProt P10275, L702H); experiment: AR transactivation luciferase assay in HEK 293 cells, L702H; conditions: luciferase reporter, FIG. 5F
T3 construct: expressed in transfected cells; host or cells: HEK 293
Description: (§4) HEK 293 cells were transiently transfected with expression vectors encoding the corresponding mutant AR and an androgen-responsive luciferase reporter gene construct. […] Luciferase activity was then determined.

wild-type AR = biological target: T4, wild-type AR (Homo sapiens, UniProt P10275); experiment: AR transactivation luciferase assay in HEK 293 cells, wild-type AR; conditions: luciferase reporter, FIG. 5A
T4 construct: expressed in transfected cells; host or cells: HEK 293
Description: as §4

MDA-MB-468 cells = experiment: Breast cancer cell growth, MDA-MB-468; conditions: three days, FIG. 20A
AR-V7 [3] = biological target: T2, AR-V7; experiment: AR transactivation luciferase assay in HEK 293 cells, AR-V7; conditions: luciferase reporter, FIG. 5B
Description: as §4

T878A AR mutant = biological target: T5, T878A AR mutant (Homo sapiens, UniProt P10275, T878A); experiment: AR transactivation luciferase assay in HEK 293 cells, T878A; conditions: luciferase reporter, FIG. 5C
T5 construct: expressed in transfected cells; host or cells: HEK 293
Description: as §4

MCF-7 cells = experiment: Breast cancer cell growth, MCF-7; conditions: three days, FIG. 20B
CWR22Rv1 cells = experiment: Cell growth assay (cell numbers), CWR22Rv1; conditions: for synergy with abiraterone in inhibiting cell growth: CWR22Rv1, analog 0.25 μM + abiraterone 5 μM; for cell growth, combination with abiraterone: CWR22Rv1, analog 0.25 μM + abiraterone 5 μM, 0, 3, 5 days; for cell growth, combination with abiraterone / cell growth, combination with enzalutamide: FIGS. 9, 11; for cell growth, combination with bicalutamide: CWR22Rv1, analog 0.25 μM + bicalutamide 20 μM, 0, 3, 5 days; for synergy with enzalutamide in inhibiting cell growth: CWR22Rv1, analog 0.25 μM + enzalutamide 20 μM; for cell growth, combination with enzalutamide: CWR22Rv1, analog 0.25 μM + enzalutamide 20 μM, 0, 3, 5 days; for cell growth, niclosamide analog alone: CWR22Rv1, analog 0.25 μM, 0, 3, 5 days, FIGS. 9, 11, 12
Description: DMSO treatment was used as a negative control. Total cell numbers were counted at 0, 3, and 5 days.
DMSO treatment was used as a negative control. Total cell numbers were counted at 0, 3, and 5 days. […]
The cell growth was determined at 3,5 days. […] The cell growth was determined at 3,5 days.

AR-V7 [4] = biological target: T2, AR-V7; experiment: PSA-luc assay in C4-2B cells, AR-V7; conditions: FBS, 1 μM overnight, FIG. 14D
Description: as §3

AR-V1 = biological target: T6, AR-V1 (Homo sapiens, UniProt P10275); experiment: PSA-luc assay in C4-2B cells, AR-V1; conditions: FBS, 1 μM overnight, FIG. 14B
T6 construct: expressed in transfected cells; host or cells: C4-2B
Description: as §3

AR-V9 = biological target: T7, AR-V9 (Homo sapiens, UniProt P10275, DEL470-473/INS56QQQQQ/L57Q); experiment: PSA-luc assay in C4-2B cells, AR-V9; conditions: FBS, 1 μM overnight, FIG. 14E
T7 construct: expressed in transfected cells; host or cells: C4-2B
Description: as §3

AR variants [5] = experiment: AR variant protein degradation (cycloheximide, MG132, ubiquitin IP) in C4-2B MDVR cells; conditions: FIG. 16
Description: as §1, §2
After 0, 2, 4, and 8 hours, whole cell lysate was collected and subjected to Western blot. Half-life of AR-V7 was then calculated.
Whole cell lysate was subsequently collected and subjected to Western blot.
Whole cell lysate was immunoprecipitated with an AR antibody and blot with ubiquitin and AR antibodies.

C4-2B AbiR cells = experiment: Cell growth assay (cell numbers), C4-2B AbiR; conditions: 0.5 μM + enzalutamide, 48 hours, FIG. 7C

Row | SMILES | AR variant degradation via the proteasome-ubiquitination system (AR variants [1]) | AR-FL-mediated transcriptional activity (PSA-luc) (AR-FL) | cell proliferation, combination with enzalutamide (MDV) (C4-2B MDVR cells) | cell growth (C4-2B MDVR cells) | AR-V7 (AR variant) expression (AR-V7 [2]) | L702H mutant AR transactivation (L702H AR mutant) | wild-type AR transactivation (wild-type AR) | breast cancer cell growth (MDA-MB-468 cells) | AR-V7 transactivation (AR-V7 [3]) | T878A mutant AR transactivation (T878A AR mutant) | breast cancer cell growth (MCF-7 cells) | synergy with abiraterone in inhibiting cell growth (CWR22Rv1 cells) | cell growth, combination with abiraterone (CWR22Rv1 cells) | cell growth, combination with bicalutamide (CWR22Rv1 cells; FIG. 12) | synergy with enzalutamide in inhibiting cell growth (CWR22Rv1 cells) | cell growth, combination with enzalutamide (CWR22Rv1 cells) | cell growth, niclosamide analog alone (CWR22Rv1 cells) | AR-V7-mediated PSA-luc activity (AR-V7 [4]) | AR-V1-mediated PSA-luc activity (AR-V1) | AR-V9-mediated PSA-luc activity (AR-V9) | other results
1 | O=C(Nc1ccc(C(F)(F)F)cc1Cl)c1cc(Cl)ccc1O [Compound 7] | degraded | inhibited | further inhibited | able to inhibit cell growth in a dose-dependent manner | inhibited | significantly blocked | blocked | inhibited | significantly blocked | significantly blocked | inhibited | able to synergize | able to significantly inhibit | able to significantly inhibit | able to synergize | able to significantly inhibit | None of Compounds 1, 7, 30, 31, or 34 alone were able to inhibit | inhibited | inhibited | inhibited | enhancement of abiraterone treatment (cell growth) (CWR22Rv1 cells; CWR22Rv1, 0.5 μM Compound 7 + 5 μM abiraterone, 3,5 days, FIG. 17B): significantly enhanced; enhancement of apalutamide treatment (cell growth) (CWR22Rv1 cells; CWR22Rv1, 0.5 μM Compound 7 + 20 μM apalutamide, 3,5 days, FIG. 17A): significantly enhanced; AR variant degradation via the proteasome-ubiquitination system (AR variants [5]): degraded; cell proliferation, combination with enzalutamide (MDV) (C4-2B AbiR cells): further inhibited
2 | C=CC(=O)Oc1ccc(Cl)cc1C(=O)Nc1ccc([N+](=O)[O-])cc1Cl [Compound 31] | degraded | inhibited | further inhibited | able to inhibit cell growth in a dose-dependent manner | inhibited | significantly blocked | blocked | inhibited | significantly blocked | significantly blocked | inhibited | able to synergize | significantly inhibited | able to significantly inhibit | able to synergize | significantly inhibited | None of Compounds 1, 7, 30, 31, or 34 alone were able to inhibit | inhibited | inhibited | inhibited | synergy with abiraterone in inhibiting cell growth (C4-2B MDVR cells; C4-2BMDVR, analog 0.25 μM + abiraterone 5 μM, FIG. 10): able to synergize; synergy with enzalutamide in inhibiting cell growth (C4-2B MDVR cells; C4-2BMDVR, analog 0.25 μM + enzalutamide 20 μM, FIG. 10): able to synergize; synergy with bicalutamide in inhibiting cell growth (CWR22Rv1 cells; CWR22Rv1, analog 0.25 μM + bicalutamide 20 μM, FIG. 12): able to synergize; AR variant degradation via the proteasome-ubiquitination system (AR variants [5]): degraded; cell proliferation, combination with enzalutamide (MDV) (C4-2B AbiR cells): further inhibited
